Measured values reported in patent US20150105252A1, “SUBSTITUTED PYRAZOLES AS HERBICIDES” (E I DU PONT DE NEMOURS AND COMPANY, priority 2013, published 2015).
“And” between values parts separate entries of the source, which are not always exact repeats. Equal values may be shown once.

Legend:
hairy beggarticks = experiment: Test F postemergence; type: in vivo, Bidens pilosa; details: scale 0 to 100
Excerpt: (§1) Seeds of plant species selected from corn (Zea mays), soybean (Glycine max), velvetleaf (Abutilon theophrasti), lambsquarters (Chenopodium album), wild poinsettia (Euphorbia heterophylla), pigweed, palmer (palmer pigweed, Amaranthus palmeri), common waterhemp (Amaranthus rudis), surinam grass (Brachiaria decumbens), large crabgrass (Digitaria sanguinalis), crabgrass, Brazil (Brazilian crabgrass, Digitaria horizontalis), fall panicum (Panicum dichotomiflorum), giant foxtail (Setaria faberii), green foxtail (Setaria viridis), goosegrass (Eleusine indica), johnsongrass (Sorghum halepense), common ragweed (Ambrosia elation), barnyardgrass (Echinochloa crus-galli), southern sandbur (Cenchrus echinatus), arrowleaf sida (Sida rhombifolia), Italian ryegrass (Lolium multiflorum), dayflower, VA (Virginia (VA) dayflower, Commelina virginica), field bindweed (Convolvulus arvensis), cocklebur (common cocklebur, Xanthium strumarium), morningglory (Ipomoea coccinea), nightshade (eastern black nightshade, Solanum ptycanthum), kochia (Kochia scoparia), yellow nutsedge (Cyperus esculentus), and hairy beggarticks (Bidens pilosa), were planted into a silt loam soil and treated preemergence with test chemicals formulated in a non-phytotoxic solvent mixture which included a surfactant.
(§2) At the same time, plants from these crop and weed species and also horseweed (Canada horseweed, Conyza canadensis), smartweed (ladysthumb smartweed, Polygonum persicaria), waterhemp_RES1, (ALS & Triazine resistant common waterhemp, Amaranthus rudis), and waterhemp_RES2, (ALS & HPPD resistant common waterhemp, Amaranthus rudis) were treated with postemergence applications of test chemicals formulated in the same manner. Plants ranged in height from 2 to 18 cm for postemergence treatments (1- to 4-leaf stage). Treated plants and controls were maintained in a greenhouse for 14 to 21 days, after which time all species were compared to controls and visually evaluated. Plant response ratings, summarized in Table F, are based on a scale of 0 to 100 where 0 is no effect and 100 is complete control. A dash (-) response means no test result.

crabgrass, Brazil = experiment: Test F postemergence; type: in vivo, Digitaria horizontalis; details: scale 0 to 100
Excerpt: as §1, §2

field bindweed = experiment: Test F postemergence; type: in vivo, Convolvulus arvensis; details: scale 0 to 100
Excerpt: as §1, §2

pigweed, palmer = experiment: Test F postemergence; type: in vivo, Amaranthus palmeri; details: scale 0 to 100
Excerpt: as §1, §2

common waterhemp = experiment: Test F postemergence; type: in vivo, Amaranthus rudis; details: scale 0 to 100
Excerpt: as §1, §2

[1] = test system: waterhemp_RES2 (ALS & HPPD resistant common waterhemp); experiment: Test F postemergence; type: in vivo, Amaranthus rudis; details: scale 0 to 100
Excerpt: as §1, §2

corn = experiment: Test F postemergence; type: in vivo, Zea mays; details: scale 0 to 100
Excerpt: as §1, §2

soybean = experiment: Test F postemergence; type: in vivo, Glycine max; details: scale 0 to 100
Excerpt: as §1, §2

dayflower, VA = experiment: Test F postemergence; type: in vivo, Commelina virginica; details: scale 0 to 100
Excerpt: as §1, §2

arrowleaf sida = experiment: Test F postemergence; type: in vivo, Sida rhombifolia; details: scale 0 to 100
Excerpt: as §1, §2

morningglory = experiment: Test F preemergence; type: in vivo, Ipomoea coccinea
Excerpt: as §1, §2

fall panicum = experiment: Test F preemergence; type: in vivo, Panicum dichotomiflorum
Excerpt: as §1, §2

Italian ryegrass = experiment: Test A preemergence; type: in vivo, Lolium multiflorum
Procedure, shortened: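 Visual injury ratings, 0 = no effect to 100 = complete control, taken about 10 days after treatment against untreated controls. Test chemicals, in a non-phytotoxic surfactant-containing solvent, were sprayed onto soil preemergence or onto one- to two-leaf plants (2–10 cm) postemergence, in loam–sand soil under greenhouse conditions.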

[2] = Preemergence, 31 g ai/ha, scale 0 to 100
[3] = Preemergence, 62 g ai/ha, scale 0 to 100
[4] = Preemergence, 125 g ai/ha, scale 0 to 100
[5] = preemergence, 8 g ai/ha, scale 0 to 100, 100 is complete control
[6] = preemergence, 16 g ai/ha, scale 0 to 100, 100 is complete control
[7] = 125 g ai/ha, visual injury, 0 to 100 scale, approx. 10 days
[8] = 500 g ai/ha, visual injury after approx. 10 days, 0 to 100 scale (0 no effect, 100 complete control)

CCCNC(=O)c1cc(CC)n(Cc2nc(C(F)(F)F)nn2C)n1 [Compound 109]
Plant response rating, Hairy Beggarticks (hairy beggarticks; Postemergence, 16 g ai/ha): 35
Plant response rating, Hairy Beggarticks (hairy beggarticks; Postemergence, 31 g ai/ha): 45
Plant response rating, Hairy Beggarticks (hairy beggarticks; Postemergence, 125 g ai/ha): 50
Plant response rating, Hairy Beggarticks (hairy beggarticks; Postemergence, 250 g ai/ha): 60
Plant response rating, Crabgrass, Brazil (crabgrass, Brazil; Postemergence, 16 g ai/ha): 10
Plant response rating, Crabgrass, Brazil (crabgrass, Brazil; Postemergence, 31 g ai/ha): 10
Plant response rating, Crabgrass, Brazil (crabgrass, Brazil; Postemergence, 125 g ai/ha): 40
Plant response rating, Crabgrass, Brazil (crabgrass, Brazil; Postemergence, 250 g ai/ha): 70
Plant response rating, Field Bindweed (field bindweed; Postemergence, 16 g ai/ha): 30
Plant response rating, Field Bindweed (field bindweed; Postemergence, 31 g ai/ha): 40
Plant response rating, Field Bindweed (field bindweed; Postemergence, 125 g ai/ha): 50
Plant response rating, Field Bindweed (field bindweed; Postemergence, 250 g ai/ha): 80
Plant response rating, Pigweed, Palmer (pigweed, palmer; Postemergence, 16 g ai/ha): 30
Plant response rating, Pigweed, Palmer (pigweed, palmer; Postemergence, 31 g ai/ha): 50
Plant response rating, Pigweed, Palmer (pigweed, palmer; Postemergence, 125 g ai/ha): 60
Plant response rating, Pigweed, Palmer (pigweed, palmer; Postemergence, 250 g ai/ha): 70
Plant response rating, Common Waterhemp (common waterhemp; Postemergence, 16 g ai/ha): 50
Plant response rating, Common Waterhemp (common waterhemp; Postemergence, 31 g ai/ha): 50
Plant response rating, Common Waterhemp (common waterhemp; Postemergence, 125 g ai/ha): 75
Plant response rating, Common Waterhemp (common waterhemp; Postemergence, 250 g ai/ha): 80
Plant response rating, Waterhemp_RES2 ([1]; Postemergence, 16 g ai/ha): 30
Plant response rating, Waterhemp_RES2 ([1]; Postemergence, 31 g ai/ha): 50
Plant response rating, Waterhemp_RES2 ([1]; Postemergence, 125 g ai/ha): 60
Plant response rating, Waterhemp_RES2 ([1]; Postemergence, 250 g ai/ha): 70
Plant response rating, Corn (corn; Postemergence, 16 g ai/ha): 0
Plant response rating, Corn (corn; Postemergence, 31 g ai/ha): 0
Plant response rating, Corn (corn; Postemergence, 125 g ai/ha): 20
Plant response rating, Corn (corn; Postemergence, 250 g ai/ha): 75
Plant response rating, Soybean (soybean; Postemergence, 16 g ai/ha): 50
Plant response rating, Soybean (soybean; Postemergence, 31 g ai/ha): 70
Plant response rating, Soybean (soybean; Postemergence, 125 g ai/ha): 95
Plant response rating, Soybean (soybean; Postemergence, 250 g ai/ha): 95
Plant response rating, Dayflower, VA (dayflower, VA; Postemergence, 16 g ai/ha): 15
Plant response rating, Dayflower, VA (dayflower, VA; Postemergence, 31 g ai/ha): 20
Plant response rating, Dayflower, VA (dayflower, VA; Postemergence, 125 g ai/ha): 40
Plant response rating, Dayflower, VA (dayflower, VA; Postemergence, 250 g ai/ha): 70
Plant response rating, Arrowleaf Sida (arrowleaf sida; Postemergence, 16 g ai/ha): 30
Plant response rating, Arrowleaf Sida (arrowleaf sida; Postemergence, 31 g ai/ha): 30
Plant response rating, Arrowleaf Sida (arrowleaf sida; Postemergence, 125 g ai/ha): 50
Plant response rating, Arrowleaf Sida (arrowleaf sida; Postemergence, 250 g ai/ha): 60

CCc1cc(-c2ccc(C(F)(F)F)cc2)nn1Cc1ccnc(C(F)(F)F)c1 [Compound 110]
Plant response rating, Hairy Beggarticks (hairy beggarticks; Postemergence, 16 g ai/ha): 50
Plant response rating, Hairy Beggarticks (hairy beggarticks; Postemergence, 31 g ai/ha): 60
Plant response rating, Hairy Beggarticks (hairy beggarticks; Postemergence, 125 g ai/ha): 70
Plant response rating, Hairy Beggarticks (hairy beggarticks; postemergence, 62 g ai/ha): 50 and 60
Plant response rating, Hairy Beggarticks (hairy beggarticks; postemergence, 8 g ai/ha): 30
Plant response rating, Crabgrass, Brazil (crabgrass, Brazil; Postemergence, 16 g ai/ha): 30
Plant response rating, Crabgrass, Brazil (crabgrass, Brazil; Postemergence, 31 g ai/ha): 30
Plant response rating, Crabgrass, Brazil (crabgrass, Brazil; Postemergence, 125 g ai/ha): 50
Plant response rating, Crabgrass, Brazil (crabgrass, Brazil; postemergence, 62 g ai/ha): 30 and 40
Plant response rating, Crabgrass, Brazil (crabgrass, Brazil; postemergence, 8 g ai/ha): 20
Plant response rating, Field Bindweed (field bindweed; Postemergence, 16 g ai/ha): 40
Plant response rating, Field Bindweed (field bindweed; Postemergence, 31 g ai/ha): 60
Plant response rating, Field Bindweed (field bindweed; Postemergence, 125 g ai/ha): 60
Plant response rating, Field Bindweed (field bindweed; postemergence, 62 g ai/ha): 40 and 50
Plant response rating, Field Bindweed (field bindweed; postemergence, 8 g ai/ha): 30
Plant response rating, Pigweed, Palmer (pigweed, palmer; Postemergence, 16 g ai/ha): 85
Plant response rating, Pigweed, Palmer (pigweed, palmer; Postemergence, 31 g ai/ha): 90
Plant response rating, Pigweed, Palmer (pigweed, palmer; Postemergence, 125 g ai/ha): 85
Plant response rating, Pigweed, Palmer (pigweed, palmer; postemergence, 62 g ai/ha): 50 and 85
Plant response rating, Pigweed, Palmer (pigweed, palmer; postemergence, 8 g ai/ha): 60
Plant response rating, Common Waterhemp (common waterhemp; Postemergence, 16 g ai/ha): 95
Plant response rating, Common Waterhemp (common waterhemp; Postemergence, 31 g ai/ha): 100
Plant response rating, Common Waterhemp (common waterhemp; Postemergence, 125 g ai/ha): 100
Plant response rating, Common Waterhemp (common waterhemp; postemergence, 62 g ai/ha): 60 and 90
Plant response rating, Common Waterhemp (common waterhemp; postemergence, 8 g ai/ha): 90
Plant response rating, Waterhemp_RES2 ([1]; Postemergence, 16 g ai/ha): 90
Plant response rating, Waterhemp_RES2 ([1]; Postemergence, 31 g ai/ha): 98
Plant response rating, Waterhemp_RES2 ([1]; Postemergence, 125 g ai/ha): 100
Plant response rating, Waterhemp_RES2 ([1]; postemergence, 62 g ai/ha): 60 and 98
Plant response rating, Waterhemp_RES2 ([1]; postemergence, 8 g ai/ha): 85
Plant response rating, Corn (corn; Postemergence, 16 g ai/ha): 10
Plant response rating, Corn (corn; Postemergence, 31 g ai/ha): 10
Plant response rating, Corn (corn; Postemergence, 125 g ai/ha): 20
Plant response rating, Corn (corn; postemergence, 62 g ai/ha): 10 and 15
Plant response rating, Corn (corn; postemergence, 8 g ai/ha): 10
Plant response rating, Morningglory (morningglory; [2]): 10
Plant response rating, Morningglory (morningglory; [3]): 10
Plant response rating, Morningglory (morningglory; [4]): 60
Plant response rating, Morningglory (morningglory; [5]): 0
Plant response rating, Morningglory (morningglory; [6]): 20
Plant response rating, Fall Panicum (fall panicum; [2]): 75
Plant response rating, Fall Panicum (fall panicum; [3]): 98
Plant response rating, Fall Panicum (fall panicum; [4]): 100
Plant response rating, Fall Panicum (fall panicum; [5]): 0
Plant response rating, Fall Panicum (fall panicum; [6]): 5
Plant response rating, Soybean (soybean; Postemergence, 16 g ai/ha): 30
Plant response rating, Soybean (soybean; Postemergence, 31 g ai/ha): 30
Plant response rating, Soybean (soybean; Postemergence, 125 g ai/ha): 30
Plant response rating, Soybean (soybean; postemergence, 8 g ai/ha): 20
Plant response rating, Dayflower, VA (dayflower, VA; Postemergence, 16 g ai/ha): 50
Plant response rating, Dayflower, VA (dayflower, VA; Postemergence, 31 g ai/ha): 40
Plant response rating, Dayflower, VA (dayflower, VA; Postemergence, 125 g ai/ha): 60
Plant response rating, Dayflower, VA (dayflower, VA; postemergence, 62 g ai/ha): 30 and 60
Plant response rating, Dayflower, VA (dayflower, VA; postemergence, 8 g ai/ha): 25
Plant response rating, Arrowleaf Sida (arrowleaf sida; Postemergence, 16 g ai/ha): 75
Plant response rating, Arrowleaf Sida (arrowleaf sida; Postemergence, 31 g ai/ha): 85
Plant response rating, Arrowleaf Sida (arrowleaf sida; Postemergence, 125 g ai/ha): 85
Plant response rating, Arrowleaf Sida (arrowleaf sida; postemergence, 62 g ai/ha): 40 and 75
Plant response rating, Arrowleaf Sida (arrowleaf sida; postemergence, 8 g ai/ha): 60

CCc1cc(C(=O)NOC(C)C)nn1Cc1ccnc(OC(F)F)c1 [Compound 126]
Italian Ryegrass plant response rating (Italian ryegrass; [7]): 90
Italian Ryegrass plant response rating (Italian ryegrass; [8]): 100

CCCc1cc(C(=O)NCC(F)(F)F)nn1Cc1ccnc(OC(F)F)c1 [Compound 127]
Italian Ryegrass plant response rating (Italian ryegrass; [7]): 40
Italian Ryegrass plant response rating (Italian ryegrass; [8]): 90
